ChEMBL document CHEMBL1201862, “PubChem BioAssay data set” (2004)
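Interpolation was linear, between the two tested concentrations surrounding the appropriate level; five concentrations were tested over 48 hours in 96-well plates. GI50: concentration for 50% inhibition of growth.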 Activity calls are given as the source filed them. Rule as the data show it: active = GI50 up to about 1.1 µM and inactive = higher.

Key:
Test in all cases: NCI anticancer screen, dose series, 48 h
[1] = test system: HL-60
[2] = test system: SF-539
[3] = test system: M14
[4] = test system: HOP-62
[5] = test system: T47D
[6] = test system: NCI-H522
[7] = test system: NCI-H226
[8] = test system: DU-145
[9] = test system: RPMI-8226
[10] = test system: NCI/ADR-RES
[11] = test system: TK-10
[12] = test system: KM12
[13] = test system: MOLT-4
[14] = test system: UO-31
[15] = test system: ACHN
[16] = test system: A549
[17] = test system: HOP-92
[18] = test system: SNB-19
[19] = test system: MDA-N
[20] = test system: MDA-MB-231
[21] = test system: SF-268
[22] = test system: U-251
[23] = test system: HCC 2998
[24] = test system: Malme-3M
[25] = test system: NCI-H23
[26] = test system: SN12C
[27] = test system: MDA-MB-435
[28] = test system: OVCAR-3
[29] = test system: 786-0
[30] = test system: SK-MEL-2
[31] = test system: CAKI-1
[32] = test system: HCT-116
[33] = test system: OVCAR-8
[34] = test system: Hs-578T
[35] = test system: UACC-257
[36] = test system: SNB-75
[37] = test system: IGROV-1
[38] = test system: COLO 205
[39] = test system: K562
[40] = test system: SK-MEL-28
[41] = test system: RXF 393
[42] = test system: MCF7
[43] = test system: CCRF-CEM
[44] = test system: BT-549
[45] = test system: NCI-H460
[46] = test system: SW-620
[47] = test system: OVCAR-4
[48] = test system: A498
[49] = test system: HT-29
[50] = test system: LOX IMVI
[51] = test system: SK-MEL-5
[52] = test system: SF-295
[53] = test system: EKVX
[54] = test system: SK-OV-3
[55] = test system: OVCAR-5
[56] = test system: HCT-15
[57] = test system: UACC-62
[58] = test system: PC-3
[59] = test system: SR

Measured: GI50

CCCCCCCCCCCCCCCC(=O)Nc1ccn(C2CCC(COP(=O)(O)OCC3OC(n4cc(F)c(=O)[nH]c4=O)CC3OC(C)=O)O2)c(=O)n1 (stereo unspecified)
inactive: [1] 11.2 µM | [3] 13.7 µM | [4] 5.06 µM | [5] 18.3 µM | [6] 12.3 µM | [7] 30 µM | [8] 9.25 µM | [9] 2.88 µM | [10] 16.7 µM | [11] 24.4 µM | [12] 16.6 µM | [13] 9.31 µM | [14] 7.48 µM | [15] 3.14 µM | [16] 1.67 µM | [17] 5.62 µM | [18] 3.66 µM | [19] 19.6 µM | [20] 29.4 µM | [21] 1.45 µM | [22] 12.1 µM | [23] 3.01 µM | [24] 15.6 µM | [25] 8.18 µM | [26] 13.1 µM | [27] 15.5 µM | [28] 19.4 µM | [29] 5.14 µM | [30] 23.1 µM | [31] 4.44 µM | [32] 8.04 µM | [33] 10.6 µM | [34] 29.2 µM | [35] 14.7 µM | [36] 14.9 µM | [37] 20.5 µM | [38] 13.1 µM | [39] 6.15 µM | [40] 17.9 µM | [41] 22.4 µM | [42] 2.28 µM | [43] 1.47 µM | [44] 2.39 µM | [46] 16.9 µM | [47] 14.1 µM | [48] 11.3 µM | [49] 11.2 µM | [50] 7.1 µM | [51] 13.5 µM | [52] 6.71 µM | [53] 28.8 µM | [54] 29.2 µM | [55] 34 µM | [57] 10.7 µM | [58] 15.5 µM
active: [2] 1.03 µM | [45] 0.531 µM
24.9 µM: [56]

O=C(/C=C(\N=P(c1ccccc1)(c1ccccc1)c1ccccc1)C(F)(F)C(F)(F)C(F)(F)C(F)(F)C(F)(F)C(F)(F)C(F)(F)F)c1ccccc1
> 100 µM: [56]
inactive: [1] > 100 µM | [2] > 100 µM | [3] > 100 µM | [4] > 100 µM | [5] > 100 µM | [59] > 100 µM | [8] > 100 µM | [9] > 100 µM | [10] > 100 µM | [11] > 100 µM | [12] > 100 µM | [13] > 100 µM | [14] > 100 µM | [15] > 100 µM | [16] > 100 µM | [17] > 100 µM | [18] > 100 µM | [19] > 100 µM | [20] > 10 µM | [21] > 100 µM | [22] > 100 µM | [23] > 100 µM | [24] > 100 µM | [25] > 100 µM | [26] > 100 µM | [27] > 100 µM | [28] > 100 µM | [29] > 100 µM | [30] > 100 µM | [31] > 100 µM | [32] > 100 µM | [34] > 100 µM | [35] > 100 µM | [36] > 100 µM | [37] > 100 µM | [38] > 100 µM | [39] > 100 µM | [40] > 100 µM | [41] > 100 µM | [42] > 100 µM | [43] > 100 µM | [44] > 100 µM | [45] > 100 µM | [46] > 100 µM | [47] > 100 µM | [49] > 100 µM | [50] > 100 µM | [51] > 100 µM | [52] > 100 µM | [54] > 100 µM | [55] > 100 µM | [57] > 100 µM | [58] > 100 µM

Cc1cc(-c2nc3cccc(O)c3s2)ccc1N
inactive: [1] 22.3 µM | [2] 57.4 µM | [3] 16.2 µM | [4] 27 µM | [5] 62.5 µM | [59] 40.8 µM | [7] 45.1 µM | [8] > 100 µM | [9] 45.2 µM | [10] 21.1 µM | [11] 33.6 µM | [12] 10.3 µM | [13] 28.2 µM | [14] 4.43 µM | [15] 18.2 µM | [16] 15.7 µM | [17] 43.8 µM | [19] 31.3 µM | [20] 31.3 µM | [21] 17.6 µM | [22] 41.1 µM | [23] 45.3 µM | [25] 24.6 µM | [26] 39.9 µM | [27] 17.4 µM | [28] 44.4 µM | [29] 34.1 µM | [30] 34.7 µM | [31] 20.8 µM | [32] 27.3 µM | [33] 24.2 µM | [34] 5.75 µM | [35] 37.2 µM | [36] > 100 µM | [37] 22.2 µM | [38] 24.2 µM | [39] 45.4 µM | [40] 51.4 µM | [41] > 100 µM | [42] 12.5 µM | [43] 25.8 µM | [44] 18.5 µM | [45] 29.1 µM | [46] 46.9 µM | [49] 36.3 µM | [50] 26.4 µM | [51] 19.3 µM | [52] 28.8 µM | [53] 15.7 µM | [54] 52.8 µM | [57] 16.3 µM | [58] 27.7 µM
35 µM: [56]
active: [18] < 0.01 µM
